# In US20090239845A1, “PYRAZOLE COMPOUNDS AS PROSTAGLANDIN RECEPTORS LIGANDS” (priority 2005, published 2009):
# Counter-ions that a name gives are not always drawn.
# Tested on: rat model of chronic constriction injury
# Experiment: not given
# Conditions: Anesthesia and Analgesia 2001, 93, 1012-7; cited from earlier work
row,Structure (SMILES),hyperalgesia and allodynia
1,Cc1cc(Cl)ccc1S(=O)(=O)NC[C@H]1C2CCC(CC2)[C@@H]1/C=C\CCCC(=O)O [ONO-8711],reduces hyperalgesia and allodynia

# Tested on: rodent model of post-operative pain
# Experiment: not given
# Conditions: Anesthesia and Analgesia 2001, 92, 233-238; cited from earlier work
row,Structure (SMILES),mechanical hyperalgesia
1,Cc1cc(Cl)ccc1S(=O)(=O)NC[C@H]1C2CCC(CC2)[C@@H]1/C=C\CCCC(=O)O [ONO-8711],inhibits mechanical hyperalgesia

# Tested on: gastric lesions induced by taurocholate acid, aspirin or indomethacin
# Experiment: not given
# Conditions: rats, J Pharmacol Exp Ther 1992, 263(1), 374-380; cited from earlier work
row,Structure (SMILES),gastric lesions
1,O=C(O)Cc1ccc(CCNS(=O)(=O)c2ccc(Cl)cc2)cc1 [BM 13505],inhibit gastric lesions
2,O=C(O)CCc1ccccc1CC1C2CCC(O2)C1c1nc(C(=O)NCCCCC2CCCCC2)co1 (stereo not drawn) [SQ 33961],inhibit gastric lesions

# Target: T1, human EP3 receptor (Homo sapiens, UniProt P43115)
# T1 construct: expressed in transfected cells; host or cells: CHO-K1
# T1 sequence (P43115 1-390): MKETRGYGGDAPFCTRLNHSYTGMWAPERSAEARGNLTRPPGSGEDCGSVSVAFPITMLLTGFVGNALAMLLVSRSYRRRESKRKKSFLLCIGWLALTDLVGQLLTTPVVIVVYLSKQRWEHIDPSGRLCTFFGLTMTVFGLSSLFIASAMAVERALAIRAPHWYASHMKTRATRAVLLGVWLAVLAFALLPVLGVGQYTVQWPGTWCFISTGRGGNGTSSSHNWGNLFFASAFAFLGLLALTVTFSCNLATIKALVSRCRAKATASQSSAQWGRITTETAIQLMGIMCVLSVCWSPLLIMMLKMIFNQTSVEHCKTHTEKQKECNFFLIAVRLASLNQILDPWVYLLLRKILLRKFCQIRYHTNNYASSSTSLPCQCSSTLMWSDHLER
# Experiment: human EP3 calcium mobilisation assay
# Assay type: cell-based
# Conditions: negative logarithm10 of the antagonist dissociation constant; CHO-K1 cells, PGE2; free bases or sodium salts; averages of a number of experiments; read-out: functional pKi value (converted)
# Procedure: Briefly, the antagonist properties of compounds are assessed by their ability to inhibit the mobilisation of intracellular calcium ([Ca^2+]i) in response to activation of EP1 or EP3 receptors by the natural agonist hormone prostaglandin E2 (PGE2). Increasing concentrations of antagonist reduce the amount of calcium that a given concentration of PGE2 can mobilise. The net effect is to displace the PGE2 concentration-effect curve to higher concentrations of PGE2. The amount of calcium produced is assessed using a calcium-sensitive fluorescent dye such as Fluo-4, AM and a suitable instrument such as a Fluorimetric Imaging Plate Reader (FLIPR). Increasing amounts of [Ca^2+]i produced by receptor activation increase the amount of fluorescence produced by the dye and give rise to an increasing signal. The signal may be detected using the FLIPR instrument and the data generated may be analysed with suitable curve-fitting software.
# The human EP1 or EP3 calcium mobilisation assay (hereafter referred to as ‘the calcium assay’) utilises Chinese hamster ovary-K1 (CHO-K1) cells into which a stable (pCIN; BioTechniques 20 (1996): 102-110) vector containing either EP1 or EP3 cDNA has previously been transfected. Cells are cultured in suitable flasks containing culture medium such as DMEM:F-12 supplemented with 10% v/v foetal calf serum, 2 mM L-glutamine, 0.25 mg/ml geneticin, 100 μM flurbiprofen and 10 μg/ml puromycin.
# For assay, cells are harvested using a proprietary reagent that dislodges cells such as Versene. Cells are re-suspended in a suitable quantity of fresh culture media for introduction into a 384-well plate. Following incubation for 24 hours at 37° C. the culture media is replaced with a medium containing Fluo-4 and the detergent pluronic acid, and a further incubation takes place. Concentrations of compounds are then added to the plate in order to construct concentration-effect curves. This may be performed on the FLIPR in order to assess the agonist properties of the compounds. Concentrations of PGE2 are then added to the plate in order to assess the antagonist properties of the compounds.
# The data so generated may be analysed by means of a computerised curve-fitting routine. The concentration of compound that elicits a half-maximal inhibition of the calcium mobilisation induced by PGE2 (plC50) may then be estimated.
row,Structure (SMILES),Ki
1,"CCC(C)NC(=O)Oc1cc(C)n(Cc2cc(Cl)ccc2OCC(C)C)n1 (stereo not drawn) [Example 50, 1-({5-Chloro-2-[(2-methylpropyl)oxy]phenyl}methyl)-5-methyl-1H-pyrazol-3-yl (1-methylpropyl)carbamate]",158 to 316 nM
2,"Cc1cc(N(C)C(=O)OC(C)(C)C)nn1Cc1cc(Cl)ccc1OCc1ccccc1 [Example 75, 1,1-Dimethylethyl[({5-chloro-2-[(phenylmethyl)oxy]phenyl}methyl)-5-methyl-1H-pyrazol-3-yl]methylcarbamate]",158 to 316 nM
3,"CCOC(CNC(=O)c1cc(C)n(Cc2cc(Cl)ccc2OCC(C)C)n1)OCC [Example 387, N-[2,2-Bis(ethyloxy)ethyl]-1-({5-chloro-2-[(2-methylpropyl)oxy]phenyl}methyl)-5-methyl-1H-pyrazole-3-carboxamide]",158 to 316 nM
4,"Cc1cc(OC(=O)NC2CCCC2)nn1Cc1cc(Cl)ccc1OCC(C)C [Example 52, 1-({5-Chloro-2-[(2-methylpropyl)oxy]phenyl}methyl)-5-methyl-1H-pyrazol-3-yl cyclopentylcarbamate]",158 to 316 nM
5,"Cc1cc(N2CCN(Cc3ccccn3)CC2=O)nn1Cc1cc(Cl)ccc1OCC(C)C [Example 227, 1-[1-({5-Chloro-2-[(2-methylpropyl)oxy]phenyl}methyl)-5-methyl-1H-pyrazol-3-yl]-4-(2-pyridinylmethyl)-2-piperazinone dihydrochloride]",158 to 316 nM
6,"Cc1cc(NC(=O)C(F)(F)F)nn1Cc1cc(Cl)ccc1OCC(C)C [Example 95, N-[1-({5-Chloro-2-[(2-methylpropyl)oxy]phenyl}methyl)-5-methyl-1H-pyrazol-3-yl]-2,2,2-trifluoroacetamide]",158 to 316 nM

# Continued, values first:
row,Ki,Structure (SMILES)
1,158 to 316 nM,"Cc1cc(N2Cc3ccccc3C2=O)nn1Cc1cc(Cl)ccc1OCC(C)C [Example 184, 2-[1-({5-Chloro-2-[(2-methylpropyl)oxy]phenyl}methyl)-5-methyl-1H-pyrazol-3-yl]-2,3-dihydro-1H-isoindol-1-one]"
2,158 to 316 nM,"Cc1cc(NC(=O)c2cccc(C=O)c2)nn1Cc1cc(Cl)ccc1OCC(C)C [Example 187, N-[1-({5-Chloro-2-[(2-methylpropyl)oxy]phenyl}methyl)-5-methyl-1H-pyrazol-3-yl]-3-formylbenzamide]"
3,158 to 316 nM,"Cc1cc(-c2cn3ccccc3n2)nn1Cc1cc(Cl)ccc1OCC(C)C [Example 364, 2-[1-({5-Chloro-2-[(2-methylpropyl)oxy]phenyl}methyl)-5-methyl-1H-pyrazol-3-yl]imidazo[1,2-a]pyridine hydrochloride]"
4,158 to 316 nM,"Cc1cc(N(C)C(=O)c2ccccc2)nn1Cc1cc(Cl)ccc1OCc1ccccc1 [Example 180, N-[1-({5-Chloro-2-[(phenylmethyl)oxy]phenyl}methyl)-5-methyl-1H-pyrazol-3-yl]-N-methylbenzamide]"
5,158 to 316 nM,"Cc1cc(NC(=O)c2ccccc2CO)nn1Cc1cc(Cl)ccc1OCC(C)C [Example 183, N-[1-({5-Chloro-2-[(2-methylpropyl)oxy]phenyl}methyl)-5-methyl-1H-pyrazol-3-yl]-2-(hydroxymethyl)benzamide]"
